According to patent US7612107B2, “Treatment and inhibition of disease conditions using flexible heteroarotinoids” (The Board of Regents of the University of Oklahoma, priority 2005, dated 2009):

Assays:
[1] = system: OVCAR-3 xenograft tumors; test: OVCAR-3 xenograft tumor growth model; assay type: in vivo, mouse; details: 10 mg/kg/day by gavage, 5 days per week, 4 weeks
Method: Groups of 5 mice bearing OVCAR-3 xenografted tumors were gavaged daily with the indicated drugs in sesame oil (▪ closed square) or with sesame oil alone (∘ open circle). Tumor volumes were measured in 3 dimensions with calipers weekly. Each data point represents the average and standard error of the tumor volumes on the indicated treatment day relative to the tumor volume on day zero. Nu/nu mice were injected subcutaneously with one million OVCAR-3 cells and arbitrarily divided into five groups of six mice each. After three weeks of tumor growth, the animals were gavaged with sesame oil, 10 mg/kg/day 4-HPR, or the indicated Het five times per week for four weeks and the tumors were measured once per week. The tumor sizes were averaged and divided by the average size for each group on the day that treatment was initiated (day 0).
The OVCAR-3 cultures were maintained in RPMI media supplemented with 10% fetal bovine serum. All animal experimentation described in this manuscript was conducted in accord with accepted standards of humane animal care. Twenty-five female NU/NU CD-1 female mice (Charles Rivers Laboratories) were housed in a laminar flow room under sterile conditions at 83-85° F. The mice were quarantined for one week prior to the beginning of the study and were allowed access to autoclaved food (Purina 5001 mouse/rat sterilizable diet, St. Louis, Mo.) and water ad libitum. OVCAR-3 cells in log phase growth were harvested by trypsinization, resuspended in RPMI culture medium, and centrifuged at 3,000 rpm for 10 min. The pellets were resuspended in RPMI culture medium at a concentration of 7×10^6 cells/ml before implantation into mice. Animals were injected with 3.5×10^6 cells into the right scapular region with a 24-gauge needle/1 cc tuberculin syringe. Twenty-four hours after tumor implantation, animals were randomized into 5 groups of 5 animals each.
The Hets SHet50, SHetA2 and SHetA4 were synthesized and their receptor specificity determined as previously described (17,19). The 4-HPR compound was a gift from R.W. Johnson Pharmaceutical Research Institute, Raritan, N.J. All retinoids were dissolved in super refined sesame oil (Croda, Inc., Parsippany, N.J.) and stored at −80° C. Since the retinoids are light sensitive, all manipulations involving retinoids were performed under subdued lighting. […] Tumors were measured with calipers weekly, and tumor volumes were calculated using the formula: volume=length×width×height. Tumor growth was determined by the dividing the volume of the tumor at each weekly measurement by the volume on the first day of treatment. Animal weights and clinical signs of overall health status and cutaneous toxicities were recorded weekly.

[2] = system: Thymidine Phosphorylase (TP); test: Real time rt-PCR and Western blot validation, thymidine phosphorylase; assay type: cell-based; details: OVCAR-3 1 μM (rt-PCR); A2780 10 μM (Western)
Method: FIG. 13. Real Time rt-PCR validation of SHetA2 inhibition of TP and TSP-1 mRNA Expression. OVCAR-3 cultures were treated with 1 μM SHetA2 for the indicated period of time prior to harvesting the cells and isolating RNA. cDNA was prepared and used in real time rt-PCR reactions. Real time rt-PCR was performed on cDNA from cultures various treatment times.
FIG. 14. Western blot validation of SHetA2 inhibition of TP and TSP4 protein expression. A2780 ovarian cancer cells were treated with 10 μM SHetA2 for the indicated amounts of time. Equal amounts of whole cell protein extracts were evaluated by Western blot.

[3] = system: EAhy.926 endothelial cells; test: Endothelial tube branching on matrigel; assay type: cell-based; details: 1, 5 and 10 μM; 20 hours
Method: The graph on the left provides quantification of the endothelial branches for each treatment dose.
The increased thickness of the vessels at 1 μM and the increasing proportions of solitary clumps of cells at 5 and 10 μM indicate that SHetA2 is inhibiting endothelial cell migration. To determine if this anti-angiogenic activity was due to growth inhibition or cytotoxicity. The viability of the endothelial cells treated with SHetA2 for 24 hours was evaluated. […] This confirms the therapeutic ratio observed in previous studies.

[4] = system: OVCAR-3 xenograft tumors; test: Histochemical and immunohistochemical evaluation of xenograft tumors (glands, MUC-1, TUNEL); assay type: in vivo, mouse; details: 10 mg/kg/day gavage, end of treatment
Method: Statistically significant higher levels of glands and MUC-1 expression in the tumors of treated animals in comparison to controls treated with sesame oil are indicated by asterisks (*) and were determined by t-tests. For gland formation, p<0.001 for SHetA2, p=0.097 for SHetA4, p=0.001 for SHet50, and p=0.007 for 4-HPR. For MUC-1 scores, p=0.011 for SHetA2, p=0.050 for SHetA4, p=0.040 for SHet50, and p=0.001 for 4-HPR. The higher levels of TUNEL scores in the tumors of treated animals in comparison to control animals approached significance (t-test, p=0.27 for SHetA2, p=0.48 for SHetA4, p=0.20 for SHet50, and p=0.12 for 4-HPR).
On the last day of treatment, the animals were sacrificed and then the tumors were removed, fixed in neutral buffered formalin and embedded in paraffin. […] MUC-1 expression was detected in tumor sections using a mouse monoclonal antibody to human MUC-1 (Pharmingen, San Diego, Calif.) and the Histostain-Plus AEC Kit (Zymed Laboratories, San Francisco, Calif.) according to manufacturers instructions. […] Tumor sections were scored for number of glands (quantified in one H&E stained sections and 3 MUC-1-stained sections) and MUC-1 and TUNEL staining (based on staining intensity and percent positive cells). […]

SMILES: CC1(C)CC(C)(C)c2cc(NC(=S)Nc3ccc([N+](=O)[O-])cc3)ccc2S1 [SHetA2]
- Growth of xenograft tumors versus sesame oil control [1]: significantly inhibited the growth
- Expression of TP at the RNA and protein levels [2]: inhibit expression
- Inhibition of angiogenesis: endothelial tube branching [3]: dose-responsive inhibition
- MUC-1 expression in xenograft tumors ([4]; vs control): increase staining
- Gland formation in xenograft tumors ([4]; vs untreated control): greatest degree of gland induction
